Legend:
persian speedwell [1] = test: Test Example 5: herbicidal effect by foliage application, plastic box (Table 20, symbol R); format: in vivo, Persian speedwell (Veronica persica); conditions: foliage application, AAH 320 g/ha, evaluated three weeks after application
In short: (§1)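 Foliar spray test: emulsion formulation diluted in water to a set application rate, sprayed onto 14-day-old plants raised in diluvial soil at 25° C to 30° C under glass. Both herbicidal effect and crop effect rated visually three weeks later.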

green foxtail [2] = test: Test Example 4: herbicidal effect by soil treatment (Table 19, symbol G); format: in vivo, green foxtail (Setaria viridis); conditions: amount of applied herbicide 320 g/ha
In short: (§2)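 Herbicidal effect was rated 3 weeks after treatment, using the scoring criteria of an earlier test. The compound, formulated as an emulsion and diluted in water to a set herbicide amount, had been sprayed uniformly on soil over freshly sown seeds. Growth took place in a greenhouse at 25° C. to 30° C.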

barnyard grass [3] = test: Test Example 4: herbicidal effect by soil treatment (Table 19, symbol H); format: in vivo, barnyard grass (Echinochloa crus-galli); conditions: amount of applied herbicide 320 g/ha
In short: as §2

chickweed [4] = test: Test Example 4: herbicidal effect by soil treatment (Table 19, symbol P); format: in vivo, common chickweed (Stellaria media); conditions: amount of applied herbicide 320 g/ha
In short: as §2

late watergrass = test: Test Example 1: herbicidal activity, application before weed generation under submerged conditions (Table 16, symbol A); format: in vivo, late watergrass (Echinochloa oryzicola); conditions: 320 g/ha applied herbicide
In short: (§3)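 Submerged Wagner pots (alluvial soil, 4 cm water) sown with weed seeds and planted with 2.5-leaf rice seedlings; emulsifiable concentrate diluted in water applied to water surface on sowing day. Held in greenhouse at 25-30 °C; injury scored 0-5 by herbicidal rate after three weeks.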

oval-leafed pondweed = test: Test Example 1: herbicidal activity, application before weed generation under submerged conditions (Table 16, symbol C); format: in vivo, oval-leafed pondweed (Monochoria vaginalis); conditions: 320 g/ha applied herbicide
In short: as §3

lambsquarters [5] = test: Test Example 4: herbicidal effect by soil treatment (Table 19, symbol O); format: in vivo, lambsquarters (Chenopodium album); conditions: amount of applied herbicide 320 g/ha
In short: as §2

southern crabgrass [6] = test: Test Example 4: herbicidal effect by soil treatment (Table 19, symbol F); format: in vivo, southern crabgrass (Digitaria ciliaris); conditions: amount of applied herbicide 320 g/ha
In short: as §2

southern crabgrass [7] = test: Test Example 5: herbicidal effect by foliage application, plastic box (Table 20, symbol F); format: in vivo, southern crabgrass (Digitaria ciliaris); conditions: foliage application, AAH 320 g/ha, evaluated three weeks after application
In short: as §1

windgrass [8] = test: Test Example 5: herbicidal effect by foliage application, plastic box (Table 20, symbol L); format: in vivo, windgrass (Apera spica-venti); conditions: foliage application, AAH 320 g/ha, evaluated three weeks after application
In short: as §1

rice flat sedge = test: Test Example 3: herbicidal effect by foliage application, Wagner pot (Table 18, symbol E); format: in vivo, rice flat sedge (Cyperus iria); conditions: amount of applied herbicide 320 g/ha
In short: (§4)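 Plants were sown in alluvial soil held under 0.1–0.5 cm standing water and grown 14 days in a greenhouse at 25–30 °C. An emulsifiable formulation, water-diluted to the set dose, was then sprayed onto the foliage, and effects were scored three weeks later using previously defined criteria.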

lambsquarters [9] = test: Test Example 5: herbicidal effect by foliage application, plastic box (Table 20, symbol O); format: in vivo, lambsquarters (Chenopodium album); conditions: foliage application, AAH 320 g/ha, evaluated three weeks after application
In short: as §1

barnyard grass [10] = test: Test Example 3: herbicidal effect by foliage application, Wagner pot (Table 18, symbol H); format: in vivo, barnyard grass (Echinochloa crus-galli); conditions: amount of applied herbicide 320 g/ha
In short: as §4

redroot pigweed [11] = test: Test Example 5: herbicidal effect by foliage application, plastic box (Table 20, symbol N); format: in vivo, redroot pigweed (Amaranthus retroflexus); conditions: foliage application, AAH 320 g/ha, evaluated three weeks after application
In short: as §1

windgrass [12] = test: Test Example 4: herbicidal effect by soil treatment (Table 19, symbol L); format: in vivo, windgrass (Apera spica-venti); conditions: amount of applied herbicide 320 g/ha
In short: as §2

Italian ryegrass [13] = test: Test Example 4: herbicidal effect by soil treatment (Table 19, symbol K); format: in vivo, Italian ryegrass (Lolium multiflorum); conditions: amount of applied herbicide 320 g/ha
In short: as §2

Chinese sprangletop = test: Test Example 3: herbicidal effect by foliage application, Wagner pot (Table 18, symbol D); format: in vivo, chinese sprangletop (Leptochloa chinensis); conditions: amount of applied herbicide 320 g/ha
In short: as §4

blackgrass [14] = test: Test Example 4: herbicidal effect by soil treatment (Table 19, symbol J); format: in vivo, blackgrass (Alopecurus myosuroides); conditions: amount of applied herbicide 320 g/ha
In short: as §2

Japanese bulrush = test: Test Example 1: herbicidal activity, application before weed generation under submerged conditions (Table 16, symbol B); format: in vivo, Japanese bulrush (Schoenoplectus juncoides); conditions: 320 g/ha applied herbicide
In short: as §3

wild oat [15] = test: Test Example 5: herbicidal effect by foliage application, plastic box (Table 20, symbol I); format: in vivo, wild oat (Avena fatua); conditions: foliage application, AAH 320 g/ha, evaluated three weeks after application
In short: as §1

blackgrass [16] = test: Test Example 5: herbicidal effect by foliage application, plastic box (Table 20, symbol J); format: in vivo, blackgrass (Alopecurus myosuroides); conditions: foliage application, AAH 320 g/ha, evaluated three weeks after application
In short: as §1

persian speedwell [17] = test: Test Example 4: herbicidal effect by soil treatment (Table 19, symbol R); format: in vivo, Persian speedwell (Veronica persica); conditions: amount of applied herbicide 320 g/ha
In short: as §2

redroot pigweed [18] = test: Test Example 4: herbicidal effect by soil treatment (Table 19, symbol N); format: in vivo, redroot pigweed (Amaranthus retroflexus); conditions: amount of applied herbicide 320 g/ha
In short: as §2

barnyard grass [19] = test: Test Example 5: herbicidal effect by foliage application, plastic box (Table 20, symbol H); format: in vivo, barnyard grass (Echinochloa crus-galli); conditions: foliage application, AAH 320 g/ha, evaluated three weeks after application
In short: as §1

wild oat [20] = test: Test Example 4: herbicidal effect by soil treatment (Table 19, symbol I); format: in vivo, wild oat (Avena fatua); conditions: amount of applied herbicide 320 g/ha
In short: as §2

velvetleaf [21] = test: Test Example 4: herbicidal effect by soil treatment (Table 19, symbol M); format: in vivo, velvetleaf (Abutilon theophrasti); conditions: amount of applied herbicide 320 g/ha
In short: as §2

green foxtail [22] = test: Test Example 5: herbicidal effect by foliage application, plastic box (Table 20, symbol G); format: in vivo, green foxtail (Setaria viridis); conditions: foliage application, AAH 320 g/ha, evaluated three weeks after application
In short: as §1

Italian ryegrass [23] = test: Test Example 5: herbicidal effect by foliage application, plastic box (Table 20, symbol K); format: in vivo, Italian ryegrass (Lolium multiflorum); conditions: foliage application, AAH 320 g/ha, evaluated three weeks after application
In short: as §1

chickweed [24] = test: Test Example 5: herbicidal effect by foliage application, plastic box (Table 20, symbol P); format: in vivo, common chickweed (Stellaria media); conditions: foliage application, AAH 320 g/ha, evaluated three weeks after application
In short: as §1

velvetleaf [25] = test: Test Example 5: herbicidal effect by foliage application, plastic box (Table 20, symbol M); format: in vivo, velvetleaf (Abutilon theophrasti); conditions: foliage application, AAH 320 g/ha, evaluated three weeks after application
In short: as §1

SMILES: Cc1nn(C)c(=O)c(-c2c(-c3ccc(F)c(F)c3)sc3ccc(F)cc23)c1O [2-344]
- R: persian speedwell, herbicidal effect (criteria 0-5) (persian speedwell [1]): 5 (Herbicidal rate of 90% or more (almost completely withered))
- herbicidal effect on G: green foxtail (green foxtail [2]): 5 (Herbicidal rate of 90% or more (almost completely withered))
- herbicidal effect on H: barnyard grass (barnyard grass [3]): 4 (Herbicidal rate of 70% or more and less than 90%)
- herbicidal effect on P: chickweed (chickweed [4]): 4 (Herbicidal rate of 70% or more and less than 90%)
- Herbicidal effect on A: late watergrass (grade 0-5) (late watergrass): 0 (Herbicidal rate of 5% or less (almost no effect))
- Herbicidal effect on C: oval-leafed pondweed (grade 0-5) (oval-leafed pondweed): 0 (Herbicidal rate of 5% or less (almost no effect))
- herbicidal effect on O: lambsquarters (lambsquarters [5]): 5 (Herbicidal rate of 90% or more (almost completely withered))
- herbicidal effect on F: southern crabgrass (southern crabgrass [6]): 5 (Herbicidal rate of 90% or more (almost completely withered))
- F: southern crabgrass, herbicidal effect (criteria 0-5) (southern crabgrass [7]): 5 (Herbicidal rate of 90% or more (almost completely withered))
- L: windgrass, herbicidal effect (criteria 0-5) (windgrass [8]): 5 (Herbicidal rate of 90% or more (almost completely withered))
- herbicidal effect on E: rice flat sedge (rice flat sedge): 5 (Herbicidal rate of 90% or more (almost completely withered))
- O: lambsquarters, herbicidal effect (criteria 0-5) (lambsquarters [9]): 4 (Herbicidal rate of 70% or more and less than 90%)
- herbicidal effect on H: barnyard grass (barnyard grass [10]): 5 (Herbicidal rate of 90% or more (almost completely withered))
- N: redroot pigweed, herbicidal effect (criteria 0-5) (redroot pigweed [11]): 5 (Herbicidal rate of 90% or more (almost completely withered))
- herbicidal effect on L: windgrass (windgrass [12]): 0 (Herbicidal rate of 5% or less (almost no effect))
- herbicidal effect on K: Italian ryegrass (Italian ryegrass [13]): 5 (Herbicidal rate of 90% or more (almost completely withered))
- herbicidal effect on D: Chinese sprangletop (Chinese sprangletop): 4 (Herbicidal rate of 70% or more and less than 90%)
- herbicidal effect on J: blackgrass (blackgrass [14]): 0 (Herbicidal rate of 5% or less (almost no effect))
- Herbicidal effect on B: Japanese bulrush (grade 0-5) (Japanese bulrush): 2 (Herbicidal rate of 20% or more and less than 40%)
- I: wild oat, herbicidal effect (criteria 0-5) (wild oat [15]): 3 (Herbicidal rate of 40% or more and less than 70%)
- J: blackgrass, herbicidal effect (criteria 0-5) (blackgrass [16]): 2 (Herbicidal rate of 20% or more and less than 40%)
- herbicidal effect on R: persian speedwell (persian speedwell [17]): 5 (Herbicidal rate of 90% or more (almost completely withered))
- herbicidal effect on N: redroot pigweed (redroot pigweed [18]): 5 (Herbicidal rate of 90% or more (almost completely withered))
- H: barnyard grass, herbicidal effect (criteria 0-5) (barnyard grass [19]): 5 (Herbicidal rate of 90% or more (almost completely withered))
- herbicidal effect on I: wild oat (wild oat [20]): 0 (Herbicidal rate of 5% or less (almost no effect))
- herbicidal effect on M: velvetleaf (velvetleaf [21]): 3 (Herbicidal rate of 40% or more and less than 70%)
- G: green foxtail, herbicidal effect (criteria 0-5) (green foxtail [22]): 5 (Herbicidal rate of 90% or more (almost completely withered))
- K: Italian ryegrass, herbicidal effect (criteria 0-5) (Italian ryegrass [23]): 5 (Herbicidal rate of 90% or more (almost completely withered))
- P: chickweed, herbicidal effect (criteria 0-5) (chickweed [24]): 5 (Herbicidal rate of 90% or more (almost completely withered))
- M: velvetleaf, herbicidal effect (criteria 0-5) (velvetleaf [25]): 5 (Herbicidal rate of 90% or more (almost completely withered))

Source: patent US20230085307A1, “PYRIDAZINONE COMPOUND AND HERBICIDE” (NISSAN CHEMICAL CORPORATION, priority 2019, published 2023)
